Our source for the IC50, inhibition and Ki values is paper PMC8967249, “Discovery of Novel HPK1 Inhibitors Through Structure-Based Virtual Screening” (Frontiers in Pharmacology, 2022).

Like-named read-outs stand apart in the source and are kept apart here. Some results are limits rather than exact numbers.

For assay [1], the target named is T1, HPK1 kinase (Homo sapiens, UniProt Q92918). As to the kind of experiment: In vitro HPK1 kinase inhibition assay (Caliper mobility shift assay). The settings on record: for inhibition at 50 µM: read-out: Inhibition (%) 50 μM, 50 μM, duplicate, mean ± SD.
Procedure: The mixture was centrifuged at 1,000 rpm for 30 s and then mixed and incubated at room temperature for 10 min. […] The plate was incubated at room temperature for 2 h. Finally, 30 μL terminated buffer was added to terminate the kinase reaction. Conversion rate data were read with Caliper EZ ReaderⅡ. The IC50 values of concentration-dependent curves were fitted by GraphPad Prism 6.0.
A further assay relates to HPK1. Set-up: method as in Wu et al. (2019). The settings on record: ref Wu et al. (2019); cited from earlier work.
For a further assay, the target named is WT HPK1 kinase. Details: method as in Johnson et al. (2019). The settings on record: WT HPK1 kinase in vitro; ref Johnson et al. (2019); read-out: inhibition constant (Ki); cited from earlier work.
Assay [2] has as its target T1, HPK1 kinase. Set-up: purchased Invitrogen PV6357; method as in Yu et al. (2021). The settings on record: ref Yu et al. (2021); cited from earlier work.
For a further assay, the system named is SLP76. Details: method as in Yu et al. (2021). The settings on record: SLP76 PBMC assay; ref Yu et al. (2021); cited from earlier work.

T1 sequence (Q92918 whole entry): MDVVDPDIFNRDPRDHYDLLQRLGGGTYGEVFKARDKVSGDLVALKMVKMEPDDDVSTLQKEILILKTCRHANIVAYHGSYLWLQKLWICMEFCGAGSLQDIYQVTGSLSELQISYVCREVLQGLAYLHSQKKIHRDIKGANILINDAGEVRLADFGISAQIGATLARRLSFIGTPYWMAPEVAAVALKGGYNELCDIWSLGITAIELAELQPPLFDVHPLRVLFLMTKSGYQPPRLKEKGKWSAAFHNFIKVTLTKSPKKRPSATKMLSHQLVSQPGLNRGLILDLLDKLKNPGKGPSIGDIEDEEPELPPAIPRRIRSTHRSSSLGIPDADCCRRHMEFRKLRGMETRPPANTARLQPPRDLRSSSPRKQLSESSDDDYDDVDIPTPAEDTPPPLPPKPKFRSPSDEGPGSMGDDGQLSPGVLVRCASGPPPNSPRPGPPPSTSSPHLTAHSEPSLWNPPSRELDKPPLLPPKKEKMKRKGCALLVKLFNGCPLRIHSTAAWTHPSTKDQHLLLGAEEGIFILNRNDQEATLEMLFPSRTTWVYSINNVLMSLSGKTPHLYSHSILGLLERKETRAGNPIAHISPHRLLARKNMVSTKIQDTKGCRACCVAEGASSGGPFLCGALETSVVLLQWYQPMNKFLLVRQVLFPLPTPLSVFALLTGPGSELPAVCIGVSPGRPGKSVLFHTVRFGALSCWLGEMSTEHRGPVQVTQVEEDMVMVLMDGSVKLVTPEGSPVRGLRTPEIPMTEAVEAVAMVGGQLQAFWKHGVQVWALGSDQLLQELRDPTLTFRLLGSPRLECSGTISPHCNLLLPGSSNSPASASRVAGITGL

`O=C1Nc2ccc(Cl)cc2/C1=N/NC(=O)c1cc(Br)ccc1O` [2395-0114]: the IC50 at HPK1 kinase [1] was 9590 ± 460 nM. For the compound `Cc1cccc(NC(=O)c2n[nH]c3ccccc23)c1` [8016-1815], at HPK1 kinase [1], the IC50 amounted to 7550 ± 560 nM and the inhibition at 50 µM was more than 60%.

With `CC(C)n1ncc2cnc(Nc3cc(C4CCNC4)nc(N4CCC(F)(F)C4)n3)cc21` (centres unmarked) [GNE-1858], the IC50 in the assay on HPK1 was 1.9 nM. As for `O=C1CCc2cc(NC(=O)c3n[nH]c4ccccc34)ccc2N1` [M074-2865], the IC50 at HPK1 kinase [1] stood at 2930 ± 90 nM.

For the compound `CCN(CC)CCNC(=O)c1c(C)[nH]c(/C=C2\C(=O)Nc3ccc(F)cc32)c1C` [Sunitinib], the Ki on WT HPK1 kinase was approximately 10 nM. Take `CCCC[C@@H](CC)CNC(=O)c1ccc(N/N=C2\C(=O)Nc3ccccc32)cc1` [V014-4726]: on HPK1 kinase [1], the IC50 came out at 14300 ± 1070 nM and the inhibition at 50 µM is more than 60%.

For `Cc1cc(C)c2c(c1)/C(=N/Nc1ccc(C(=O)N3CCC[C@@H]3C)cc1)C(=O)N2` [V030-2005], the IC50 on HPK1 kinase [1] turned out to be 9490 ± 540 nM. Consider `COc1cccc(F)c1-c1cc2c(cn1)cnn2-c1cccc(N2CCN(C)CC2)n1` [XHS], for which the IC50 on HPK1 kinase [2] was 2.6 nM; with SLP76, 600 nM.
